# Values of other authors, collected in patent publication US20020013261A1, “Methods and compositions for promoting angiogenesis using polyethylene glycol (PEG) polymers” (priority 2000, published 2002).
# Test system: vascularization
# Conditions: purified recombinant protein injected into ischemic skeletal muscle tissue, rabbit chronic limb ischemia
substance,measurement,value
basic fibroblast growth factor (bFGF): purified recombinant angiogenic protein,vascularization,modest but significant vascularization
